A short description of data set [1]: Cytotoxicity against African green monkey Vero 76 cells assessed as reduction in cell viability by visual analysis. Type of data set: toxicity, cell-based. As to conditions: chlorocebus sabaeus.
For data set [2], the system named is enterovirus D68. Description: Antiviral activity against EV-68 US/KY/14-18953 infected in human RD cells assessed as reduction in virus induced cytopathic effect incubated for 3 days by visual analysis. Type of data set: functional, organism-based. The conditions noted are these: Enterovirus D, US/KY/14-18953, RD, 72 h.
The test system of the next data set is Tacaribe virus. Kind of data set: Antiviral activity against TCRV TRVL 11573 strain infected in African green monkey Vero 76 cells assessed as reduction in virus induced cytopathic effect incubated for 7 days by neutral red dye based spectrophotometric analysis. Type of data set: functional, organism-based. The conditions noted are these: Mammarenavirus tacaribeense, time 7.0 day.

The test system of data set [3] is dengue virus type 2. Description: Antiviral activity against DENV-2 New Guinea C infected in human Huh-7 cells assessed as reduction in virus induced cytopathic effect incubated for 6 days by visual analysis. Type of data set: functional, organism-based. The conditions noted are these: Huh-7, 144 h.
Data set [4] concerns Respiratory syncytial virus. Description: Antiviral activity against RSV A2 strain infected in vervet monkey MA-104 cells assessed as reduction in virus induced cytopathic effect incubated for 6 days by neutral red dye based spectrophotometric analysis. As to conditions: time 6.0 day. Type of data set: functional, organism-based.
Data set [5] can be described thus: Cytotoxicity against African green monkey Vero 76 cells assessed as reduction in cell viability by neutral red dye based spectrophotometric analysis. The format is toxicity. As to conditions: chlorocebus sabaeus.
Data set [6] is described as follows: Selectivity index, ratio of CC50 for cytotoxicity against human RD cells to EC50 for antiviral activity against EV-68 US/KY/14-18953 infected in human RD cells by neutral red dye based spectrophotometric analysis. The format is toxicity, cell-based. The conditions noted are these: read-out: Ratio CC50/EC50.
In data set [7] the test system is Measles morbillivirus. Description: Antiviral activity against MeV CC strain infected in African green monkey Vero 76 cells assessed as reduction in virus induced cytopathic effect incubated for 6 days by neutral red dye based spectrophotometric analysis. The conditions noted are these: Vero 76, 144 h. Type of data set: functional, organism-based.
A short description of data set [8]: Cytotoxicity against human RD cells assessed as reduction in cell viability by visual analysis. Type of data set: toxicity, cell-based.
The subject of a further data set is Herpesviridae sp. Description: Antiviral activity against HSV. The format is functional, organism-based.
Data set [9] has as its system enterovirus D68. Kind of data set: Antiviral activity against EV-68 US/KY/14-18953 infected in human RD cells assessed as reduction in virus induced cytopathic effect incubated for 3 days by neutral red dye based spectrophotometric analysis. The format is functional, organism-based. The conditions noted are these: Enterovirus D, US/KY/14-18953, RD, 72 h.
Data set [10] can be described thus: Cytotoxicity against human Huh-7 cells assessed as reduction in cell viability by visual analysis. The format is toxicity, cell-based.
A further data set has as its system Hepatitis B virus. Kind of data set: Antiviral activity against Hepatitis B virus. The format is functional, organism-based.
Data set [11] can be described thus: Cytotoxicity against human RD cells assessed as reduction in cell viability by neutral red dye based spectrophotometric analysis. The format is toxicity.
In data set [12] the test system is Measles morbillivirus. Kind of data set: Antiviral activity against MeV CC strain infected in African green monkey Vero 76 cells assessed as reduction in virus induced cytopathic effect incubated for 6 days by visual analysis. The conditions noted are these: Vero 76, 144 h. The format is functional, organism-based.
The nature of data set [13]: Selectivity index, ratio of CC50 for cytotoxicity against human RD cells to EC50 for antiviral activity against EV-68 US/KY/14-18953 infected in human RD cells by visual analysis. Type of data set: toxicity, cell-based. The conditions noted are these: read-out: Ratio CC50/EC50.
Data set [14] deals with Middle East respiratory syndrome-related coronavirus. Kind of data set: Antiviral activity against MERS-CoV EMC strain infected in […] cells assessed as reduction in virus induced cytopathic effect incubated for 5 days by neutral red dye based spectrophotometric analysis. The conditions noted are these: time 5.0 day. Type of data set: functional, organism-based.
A further data set concerns Influenza A virus. Description: Antiviral activity against influenza A virus H1N1 California/07/2009 infected in dog MDCK cells assessed as reduction in virus induced cytopathic effect incubated for 6 days by neutral red dye based spectrophotometric analysis. Type of data set: functional, organism-based. The conditions noted are these: time 6.0 day.
Data set [15] deals with dengue virus type 2. Description: Antiviral activity against DENV-2 New Guinea C infected in human Huh-7 cells assessed as reduction in virus induced cytopathic effect incubated for 6 days by neutral red dye based spectrophotometric analysis. Type of data set: functional, organism-based. As to conditions: Huh-7, 144 h.
The nature of data set [16]: Cytotoxicity against human Huh-7 cells assessed as reduction in cell viability by neutral red dye based spectrophotometric analysis. Type of data set: toxicity.
Data set [17] in a line: Selectivity index, ratio of CC50 for cytotoxicity against African green monkey Vero 76 cells to EC50 for antiviral activity against MeV CC strain infected in African green monkey Vero 76 cells by neutral red dye based spectrophotometric analysis. The conditions noted are these: read-out: Ratio CC50/EC50. Type of data set: toxicity, cell-based.
The nature of data set [18]: Selectivity index, ratio of CC50 for cytotoxicity against African green monkey Vero 76 cells to EC50 for antiviral activity against MeV CC strain infected in African green monkey Vero 76 cells by visual analysis. The conditions noted are these: read-out: Ratio CC50/EC50. Type of data set: toxicity, cell-based.

pEC50: −log10 of the molar value. Calls of active or inactive are those of the source. The calls are words filed in the database; no cut-off is given here.

Take `O=c1[nH]cnc2c1ncn2[C@@H]1O[C@H](CO)[C@H](OCP(=O)(O)O)[C@H]1O`: the CC50 in [1], in data set [5], in data set [8], in [10], in [11] and in data set [16] was greater than 100 µM throughout. Also, the pEC50 in the data set on enterovirus D68 [2] was 4.34; in the data set with dengue virus type 2 [3], less than 4.00; in the data set with Measles morbillivirus [7], less than 4.00; with enterovirus D68 [9], 4.05; in the data set on Measles morbillivirus [12], less than 4.00; in the data set on dengue virus type 2 [15], less than 4.00. Moreover, the outcome (with Tacaribe virus; in data set [4]; with Herpesviridae sp.; with Hepatitis B virus; in data set [14]; in the data set with Influenza A virus) was inactive. The selectivity ratio in [6] is greater than 1.1; in data set [13], greater than 2.2.

`CC(C)S(=O)(=O)n1c(N)nc2ccc(/C(=N/O)c3ccccc3)cc21` [ENVIROXIME]: the CC50 in [8] is 10 µM; in data set [11], 5.5 µM.

On to `Nc1ccn([C@@H]2O[C@H](CO)[C@@H](O)[C@H]2F)c(=O)n1`, for which the CC50 in data set [1] and in [5] was greater than 100 µM each time. Further, the pEC50 in the data set on Measles morbillivirus [7] was 6.02; in the data set on Measles morbillivirus [12] it was 6.15. In addition, the selectivity ratio was greater than 110 in [17] and greater than 140 in data set [18].

For the compound `O=c1ccn([C@@H]2O[C@H](CO)[C@H](OCP(=O)(O)O)[C@H]2O)c(=O)[nH]1`, the CC50 in data set [1], in data set [5], in [8], in data set [10], in data set [11] and in data set [16] was greater than 100 µM each time. For the same compound, the pEC50 is less than 4.00 in the data set on enterovirus D68 [2]; less than 4.00 in the data set on dengue virus type 2 [3]; 4.09 with Measles morbillivirus [7]; less than 4.00 in the data set with enterovirus D68 [9]; 4.14 in the data set on Measles morbillivirus [12]; less than 4.08 in the data set on dengue virus type 2 [15]. The outcome (in the data set on Tacaribe virus; in data set [4]; in the data set on Herpesviridae sp.; in the data set with Hepatitis B virus; in [14]; with Influenza A virus) was inactive. The figures for the selectivity ratio in data set [17] and in [18] were greater than 1.2 and greater than 1.4, respectively.

For `Nc1ncnc2c1ncn2[C@@H]1O[C@H](CO)[C@H](OCP(=O)(O)O)[C@H]1O`, the CC50 in data set [1], in data set [5], in [8], in [10], in data set [11] and in data set [16] was greater than 100 µM in each case. For the same compound, the pEC50 in the data set with enterovirus D68 [2] is 4.80; with dengue virus type 2 [3], less than 4.00; in the data set on Measles morbillivirus [7], 4.85; with enterovirus D68 [9] it was 4.70; with Measles morbillivirus [12] it was 4.92; in the data set on dengue virus type 2 [15] it was less than 4.00. In addition, the outcome (in the data set with Tacaribe virus; in data set [4]; in the data set with Herpesviridae sp.; in the data set on Hepatitis B virus; in [14]; with Influenza A virus) was inactive. Besides, the selectivity ratio in data set [6] is greater than 5; in [17] it was greater than 7.1; in data set [13], greater than 6.3; in data set [18], greater than 8.3.

Take `Nc1ccn([C@@H]2O[C@H](CO)[C@H](OCP(=O)(O)O)[C@H]2O)c(=O)n1`: the CC50 in [1], in [5], in data set [8], in [10], in [11] and in [16] was greater than 100 µM each time. Also, the pEC50 is less than 4.00 in the data set with enterovirus D68 [2]; less than 4.00 with dengue virus type 2 [3]; 4.31 in the data set with Measles morbillivirus [7]; less than 4.00 in the data set with enterovirus D68 [9]; 4.14 with Measles morbillivirus [12]; less than 4.00 with dengue virus type 2 [15]. Moreover, the result (in the data set on Tacaribe virus; in data set [4]; in the data set on Herpesviridae sp.; in the data set on Hepatitis B virus; in data set [14]; in the data set on Influenza A virus) was inactive. Also, the selectivity ratio in data set [17] is greater than 2; in data set [18] it was greater than 1.4.

Take `NC(=O)c1ncn([C@@H]2O[C@H](CO)[C@@H](O)[C@H]2O)n1`: the outcome (in the data set on Tacaribe virus; in data set [4]; with Influenza A virus) was inactive.

Take `Nc1nc2c(ncn2[C@@H]2O[C@H](CO)[C@H](OCP(=O)(O)O)[C@H]2O)c(=O)[nH]1`: the CC50 was greater than 100 µM in data set [1]; greater than 100 µM in data set [5]; 73 µM in data set [8]; greater than 100 µM in data set [10]; greater than 100 µM in [11]; greater than 100 µM in [16]. In addition, the pEC50 was 4.33 with enterovirus D68 [2]; less than 4.00 in the data set on dengue virus type 2 [3]; less than 4.00 in the data set on Measles morbillivirus [7]; 4.40 with enterovirus D68 [9]; less than 4.00 in the data set on Measles morbillivirus [12]; less than 4.00 with dengue virus type 2 [15]. In addition, the outcome (in the data set with Tacaribe virus; in [4]; in the data set with Herpesviridae sp.; in the data set on Hepatitis B virus; in [14]; in the data set on Influenza A virus) was inactive. For the same compound, the selectivity ratio in data set [6] is greater than 2.5; in data set [13], 1.6.

The values above are taken from ChEMBL document CHEMBL5321231, “Synthesis, antiviral activity, and computational study of β-d-xylofuranosyl nucleoside phosphonates” (Eur J Med Chem, 2023).
